From US20150005288A1, “SUBSTITUTED PHENYLIMIDAZOPYRAZOLES AND USE THEREOF” (Bayer Intellectual Property GmbH, priority 2012, published 2015)

Assays:
[1] = biological target: T1, intracellular domain of human Tie2 (GST fusion protein) (Homo sapiens, UniProt Q02763); test: Tie2 kinase assay (Tie2-TR-FRET); type: biochemical; details: ATP concentration 1 mM, in some cases means of several independent determinations
T1 construct: intracellular domain of human Tie2 (amino acids 776-1124); made in house; host or cells: Baculovirus-infected insect cells (Hi5)
T1 sequence (Q02763 776-1124): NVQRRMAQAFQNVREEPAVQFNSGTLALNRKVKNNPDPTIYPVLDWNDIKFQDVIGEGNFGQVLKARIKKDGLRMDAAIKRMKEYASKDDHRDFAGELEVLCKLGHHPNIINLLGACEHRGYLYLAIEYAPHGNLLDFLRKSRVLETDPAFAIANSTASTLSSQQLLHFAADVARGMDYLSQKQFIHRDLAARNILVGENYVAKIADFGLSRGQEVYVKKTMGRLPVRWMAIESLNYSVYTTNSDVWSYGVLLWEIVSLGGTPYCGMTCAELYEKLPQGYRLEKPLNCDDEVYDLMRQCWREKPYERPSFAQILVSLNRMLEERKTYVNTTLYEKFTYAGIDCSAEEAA
Summary of the method: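 High ATP (1 mM final) with 1 μM biotin-peptide substrate; reaction 60 min at 22 °C after 15 min compound pre-binding to GST-Tie2 (aa 776-1124) in HEPES pH 7 with Mg/Mn. Phosphopeptide detected by TR-FRET emission ratio 665/620 nm. IC50 from 4-parameter fit over 20 μM to 0.073 nM, duplicates.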

endogenous Tie2 receptor = biological target: T2, endogenous Tie2 receptor (Homo sapiens, UniProt Q02763); test: Tie2-pTyr-ELISA: autophosphorylation of endogenous Tie2 receptor in HUVEC; type: cell-based; details: autophosphorylation elevated by sodium orthovanadate (4 mM), Tie2/phosphotyrosine sandwich ELISA, from 2-7 independent measurements
T2 construct: the endogenous Tie2 receptor; host or cells: HUVEC (human umbilical vein endothelial cells)
T2 sequence (Q02763 23-1124): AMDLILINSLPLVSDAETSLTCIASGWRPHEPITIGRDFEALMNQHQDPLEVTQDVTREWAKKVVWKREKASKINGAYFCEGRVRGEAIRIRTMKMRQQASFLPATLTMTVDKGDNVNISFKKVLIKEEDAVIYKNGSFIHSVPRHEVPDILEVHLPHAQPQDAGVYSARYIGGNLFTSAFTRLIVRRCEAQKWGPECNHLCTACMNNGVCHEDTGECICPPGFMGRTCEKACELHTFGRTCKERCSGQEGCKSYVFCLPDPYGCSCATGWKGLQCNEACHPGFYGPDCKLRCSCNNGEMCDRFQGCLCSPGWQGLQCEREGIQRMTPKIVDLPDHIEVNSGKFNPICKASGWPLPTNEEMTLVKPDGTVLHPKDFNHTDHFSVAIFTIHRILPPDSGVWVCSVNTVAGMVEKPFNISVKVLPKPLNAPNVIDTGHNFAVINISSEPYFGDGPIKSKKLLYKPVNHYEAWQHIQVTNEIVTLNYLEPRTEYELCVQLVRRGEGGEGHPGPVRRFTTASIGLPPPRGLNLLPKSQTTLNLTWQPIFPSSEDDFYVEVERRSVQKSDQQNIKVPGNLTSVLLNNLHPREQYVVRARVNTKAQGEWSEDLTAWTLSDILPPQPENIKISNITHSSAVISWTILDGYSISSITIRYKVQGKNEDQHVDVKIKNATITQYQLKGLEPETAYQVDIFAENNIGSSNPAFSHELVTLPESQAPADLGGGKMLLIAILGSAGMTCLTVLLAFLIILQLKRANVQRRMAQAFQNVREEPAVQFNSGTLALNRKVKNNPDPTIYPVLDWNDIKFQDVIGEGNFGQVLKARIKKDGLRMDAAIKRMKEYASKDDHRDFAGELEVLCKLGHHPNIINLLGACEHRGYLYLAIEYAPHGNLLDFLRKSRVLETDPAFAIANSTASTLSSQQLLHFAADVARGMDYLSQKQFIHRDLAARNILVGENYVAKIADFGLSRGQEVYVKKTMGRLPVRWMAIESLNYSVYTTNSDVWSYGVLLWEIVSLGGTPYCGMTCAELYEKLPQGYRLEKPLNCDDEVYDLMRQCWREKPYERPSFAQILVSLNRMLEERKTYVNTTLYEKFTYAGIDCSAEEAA
Procedure: The cellular activity of the compounds according to the invention as Tie2 kinase inhibitors was determined in human endothelial cells (HUVEC) by measuring the inhibition of the autophosphorylation, elevated by treatment with sodium orthovanadate, of the endogenous Tie2 receptor by means of a Tie2/phosphotyrosine sandwich ELISA.
Human endothelial cells (human umbilical vein endothelial cells, HUVEC) were obtained from Cellsystems (FC-0003), cultured in Vasculife VEGF complete medium (Cellsystems, LL-1020) with 2% foetal calf serum (FCS) at 37° C./5% CO2 and used for Tie2-ELISA measurements up to passage 8.
HUVEC were plated in a culture volume of 100 μl of Vasculife VEGF complete medium at a cell density of 30 000 cells per well in transparent collagen-coated 96-well cell culture plates (Falcon, #353075) and incubated in an incubation cabinet at 37° C./5% CO2 overnight. The test substances dissolved in DMSO were used to prepare in each case one dilution series in Vasculife VEGF low-serum medium [basal medium with LifeFactors (Cellsystems, LM-0002), without FCS, with 0.1% BSA] without sodium orthovanadate and one dilution series in Vasculife VEGF low-serum-medium with 8 mM sodium orthovanadate in the desired concentrations in the range from 10 pM to 10 μM, the final DMSO concentration being 1%. After removal of the complete medium, 100 μl per well of the dilute substances in low-serum medium without sodium orthovanadate were pipetted onto the cells, and the plates were incubated in an incubation cabinet at 37° C./5% CO2 for 10 min. A further 100 μl of the same substance dilution in low-serum medium with 8 mM sodium orthovanadate were then pipetted into the respective well and the cells were incubated in a volume of now 200 μl in the presence of 4 mM sodium orthovanadate at the desired substance concentration in an incubation cabinet at 37° C./5% CO2 for a further 20 min. The cell supernatant of the plates was then removed and the cells were washed once with 250 μl per well of cold PBS which contained 4 mM sodium orthovanadate. 120 μl of Duschl lysis buffer [50 mM HEPES pH 7.2, 150 mM NaCl, 1 mM MgCl2, 10% glycerol, 1.5% Triton X-100, 4 mM sodium orthovanadate, 250 μl S-PIC phosphatase inhibitor cocktail 2 (Sigma, P5726) and 1 tablet of Complete proteinase inhibitor mixture (Roche, #1836145) per 10 ml] were then added to the cells in each well. The plates were shaken briefly and then incubated on ice for 20 min, and the lysates in the cell culture plates were then frozen at −80° C. for at least 30 min.
For measuring the autophosphorylation of the endogenous Tie2 receptor in the cell lysates prepared, a self-prepared anti-Tie2 antibody directed against the N-terminus of the Tie-2 receptor (1.09 mg/ml) and an HRP-coupled anti-phosphotyrosine antibody (Sigma, A4595, clone pY-20) were used. White 96-well ELISA plates (Lumitrac600, Greiner, #655074) were incubated with 100 μl per well of a 1:1000 dilution of the anti-Tie2 antibody in coating buffer [15 mM Na2CO3, 35 mM NaHCO3, pH 9.6] with shaking at 4° C. overnight. The coated ELISA plates were washed three times with 250 μl PBST buffer [0.1% Tween-20 in PBS], the wells were blocked with 250 μl 3% BSA in PBST buffer with shaking at RT for 1-6 h and washed three more times with 250 μl PBST buffer. From the cell lysate plates thawed in the fridge, in each case 100 μl of lysate were transferred into the coated wells of the ELISA plates, and the plates were incubated with shaking at 4° C. overnight. The plates were washed three times with in each case 250 μl of PBST buffer, and 100 μl of a 1:5000 dilution of the anti-phosphotyrosine HRP antibody in 3% Prionex (Calbiochem, #529600) in PBST were then pipetted into each well and the plates were incubated with shaking and protected from light at 4° C. overnight. […]

Structure (SMILES) | IC50 [1] | IC50 (endogenous Tie2 receptor)
Cc1ccc(NC(=O)c2cc(N3CCN(C)CC3)cc(S(F)(F)(F)(F)F)c2)cc1-n1ccn2nc(-c3cn[nH]c3)cc12 [Example 2, 3-(4-Methylpiperazin-1-yl)-N-{4-methyl-3-[6-(1H-pyrazol-4-yl)-1H-imidazo[1,2-b]pyrazol-1-yl]-phenyl}-5-(pentafluoro-λ^6-sulphanyl)benzamide] | 6 nM | 7.6 nM
Cc1ccc(NC(=O)c2cc(N3CCOCC3)cc(S(F)(F)(F)(F)F)c2)cc1-n1ccn2nc(-c3cn[nH]c3)cc12 [Example 3, N-{4-Methyl-3-[6-(1H-pyrazol-4-yl)-1H-imidazo[1,2-b]pyrazol-1-yl]phenyl}-3-(morpholin-4-yl)-5-(pentafluoro-λ^6-sulphanyl)benzamide] | 1.2 nM | 3.4 nM
Cc1ccc(NC(=O)c2cc(C(C)(C)O)cc(S(F)(F)(F)(F)F)c2)cc1-n1ccn2nc(-c3cn[nH]c3)cc12 [Example 4, 3-(2-Hydroxypropan-2-yl)-N-{4-methyl-3-[6-(1H-pyrazol-4-yl)-1H-imidazo[1,2-b]pyrazol-1-yl]-phenyl}-5-(pentafluoro-λ^6-sulphanyl)benzamide] | 0.6 nM | 4.7 nM
Cc1ccc(NC(=O)c2cc(C#N)cc(S(F)(F)(F)(F)F)c2)cc1-n1ccn2nc(-c3cccnc3)c(F)c12 [Example 159, 3-Cyano-N-{3-[7-fluoro-6-(pyridin-3-yl)-1H-imidazo[1,2-b]pyrazol-1-yl]-4-methylphenyl}-5-(pentafluoro-λ^6-sulphanyl)benzamide] | 10 nM | 
Cc1ccc(NC(=O)c2cc(C(C)(C)O)cc(S(F)(F)(F)(F)F)c2)cc1-n1ccn2nc(-c3cccnc3)c(F)c12 [Example 160, N-{3-[7-Fluoro-6-(pyridin-3-yl)-1H-imidazo[1,2-b]pyrazol-1-yl]-4-methylphenyl}-3-(2-hydroxypropan-2-yl)-5-(pentafluoro-λ^6-sulphanyl)benzamide] | 1 nM | 
Cc1ccc(NC(=O)c2cccc(S(F)(F)(F)(F)F)c2)cc1-n1ccn2nc(-c3cncnc3)cc12 [Example 163, N-{4-Methyl-3-[6-(pyrimidin-5-yl)-1H-imidazo[1,2-b]pyrazol-1-yl]phenyl}-3-(pentafluoro-λ^6-sulphanyl)benzamide] | 8.9 nM | 
Cc1cc(C)c(-n2ccn3nc(-c4cncnc4)cc23)cc1NC(=O)c1cccc(S(F)(F)(F)(F)F)c1 [Example 164, N-{2,4-Dimethyl-5-[6-(pyrimidin-5-yl)-1H-imidazo[1,2-b]pyrazol-1-yl]phenyl}-3-(pentafluoro-λ^6-sulphanyl)benzamide] | 0.4 nM | 
Cc1cc(C)c(-n2ccn3nc(-c4cncnc4)cc23)cc1NC(=O)c1cc(Br)cc(S(F)(F)(F)(F)F)c1 [Example 165, 3-Bromo-N-{2,4-dimethyl-5-[6-(pyrimidin-5-yl)-1H-imidazo[1,2-b]pyrazol-1-yl]phenyl}-5-(pentafluoro-λ^6-sulphanyl)benzamide] | 1.7 nM | 
Cc1cc(C)c(-n2ccn3nc(-c4cncnc4)cc23)cc1NC(=O)c1cc(C#N)cc(S(F)(F)(F)(F)F)c1 [Example 166, 3-Cyano-N-{2,4-dimethyl-5-[6-(pyrimidin-5-yl)-1H-imidazo[1,2-b]pyrazol-1-yl]phenyl}-5-(pentafluoro-λ^6-sulphanyl)benzamide] | 0.3 nM | 
Cc1ccc(NC(=O)c2cc(C#N)cc(S(F)(F)(F)(F)F)c2)cc1-n1ccn2nc(-c3ccnnc3)cc12 [Example 168, 3-Cyano-N-{4-methyl-3-[6-(pyridazin-4-yl)-1H-imidazo[1,2-b]pyrazol-1-yl]phenyl}-5-(pentafluoro-λ^6-sulphanyl)benzamide] | 726 nM | 
Cc1cc(C)c(-n2ccn3nc(-c4cccnn4)cc23)cc1NC(=O)c1cccc(S(F)(F)(F)(F)F)c1 [Example 169, N-{2,4-Dimethyl-5-[6-(pyridazin-3-yl)-1H-imidazo[1,2-b]pyrazol-1-yl]phenyl}-3-(pentafluoro-λ^6-sulphanyl)benzamide] | 1 nM | 
Cc1cc(C)c(-n2ccn3nc(-c4cccnn4)cc23)cc1NC(=O)c1cc(Br)cc(S(F)(F)(F)(F)F)c1 [Example 170, 3-Bromo-N-{2,4-dimethyl-5-[6-(pyridazin-3-yl)-1H-imidazo[1,2-b]pyrazol-1-yl]phenyl}-5-(pentafluoro-λ^6-sulphanyl)benzamide] | 1.2 nM | 
Cc1cc(C)c(-n2ccn3nc(-c4cccnn4)cc23)cc1NC(=O)c1cc(C#N)cc(S(F)(F)(F)(F)F)c1 [Example 171, 3-Cyano-N-{2,4-dimethyl-5-[6-(pyridazin-3-yl)-1H-imidazo[1,2-b]pyrazol-1-yl]phenyl}-5-(pentafluoro-λ^6-sulphanyl)benzamide] | 0.3 nM | 
Cc1ccc(NC(=O)c2cccc(S(F)(F)(F)(F)F)c2)cc1-n1ccn2nc(-c3cncs3)cc12 [Example 172, N-{4-Methyl-3-[6-(1,3-thiazol-5-yl)-1H-imidazo[1,2-b]pyrazol-1-yl]phenyl}-3-(pentafluoro-λ^6-sulphanyl)benzamide] | 7.8 nM | 
Cc1ccc(NC(=O)c2cc(F)cc(S(F)(F)(F)(F)F)c2)cc1-n1ccn2nc(-c3cncs3)cc12 [Example 173, 3-Fluoro-N-{4-methyl-3-[6-(1,3-thiazol-5-yl)-1H-imidazo[1,2-b]pyrazol-1-yl]phenyl}-5-(pentafluoro-λ^6-sulphanyl)benzamide] | 9.3 nM | 
Cc1ccc(NC(=O)c2cc(Cl)cc(S(F)(F)(F)(F)F)c2)cc1-n1ccn2nc(-c3cncs3)cc12 [Example 174, 3-Chloro-N-{4-methyl-3-[6-(1,3-thiazol-5-yl)-1H-imidazo[1,2-b]pyrazol-1-yl]phenyl}-5-(pentafluoro-λ^6-sulphanyl)benzamide] | 2.8 nM | 
Cc1ccc(NC(=O)c2cc(Br)cc(S(F)(F)(F)(F)F)c2)cc1-n1ccn2nc(-c3cncs3)cc12 [Example 175, 3-Bromo-N-{4-methyl-3-[6-(1,3-thiazol-5-yl)-1H-imidazo[1,2-b]pyrazol-1-yl]phenyl}-5-(pentafluoro-λ^6-sulphanyl)benzamide] | 3.2 nM | 
Cc1ccc(NC(=O)c2cc(S(C)(=O)=O)cc(S(F)(F)(F)(F)F)c2)cc1-n1ccn2nc(-c3cncs3)cc12 [Example 176, 3-(Methylsulphonyl)-N-{4-methyl-3-[6-(1,3-thiazol-5-yl)-1H-imidazo[1,2-b]pyrazol-1-yl]phenyl}-5-(pentafluoro-λ^6-sulphanyl)benzamide] | 0.8 nM | 
Cc1ccc(NC(=O)c2cc(C#N)cc(S(F)(F)(F)(F)F)c2)cc1-n1ccn2nc(-c3cncs3)cc12 [Example 177, 3-Cyano-N-{4-methyl-3-[6-(1,3-thiazol-5-yl)-1H-imidazo[1,2-b]pyrazol-1-yl]phenyl}-5-(pentafluoro-λ^6-sulphanyl)benzamide] | 1.8 nM | 
Cc1ccc(NC(=O)c2cc(C(C)(C)O)cc(S(F)(F)(F)(F)F)c2)cc1-n1ccn2nc(-c3cncs3)cc12 [Example 178, 3-(2-Hydroxypropan-2-yl)-N-{4-methyl-3-[6-(1,3-thiazol-5-yl)-1H-imidazo[1,2-b]pyrazol-1-yl]-phenyl}-5-(pentafluoro-λ^6-sulphanyl)benzamide] | 0.8 nM | 
